# Literature values in US6989450B2 (priority 2000, dated 2006).
# Like-named read-outs stand apart in the source and are kept apart here.
# Key:
# [1] = tested on: P-glycoprotein expressing KBV-1 cells; details: P-glycoprotein (MDR protein) expressing KBV-1 cells
# [2] = tested on: multidrug resistant cell lines
# [3] = water solubility; comparison with taxol
# [4] = target: microtubule, or polymeric, form of tubulin; details: binding to polymeric tubulin
KD [4],Structure (SMILES),IC50 [1] [µM],potency relative to Taxol ([2]; multidrug resistant cell lines / cancerous cells with acquired multiple drug resistance),"potency relative to Taxol ([2]; multidrug resistant cell lines / cancerous cells with acquired multiple drug resistance, listed as 1)",solubility [3],potency relative to Taxol [2]
,C/C(=C\c1csc(C)n1)[C@@H]1C[C@@H]2O[C@]2(C)CCC[C@H](C)[C@H](O)[C@@H](C)C(=O)C(C)(C)[C@@H](O)CC(=O)O1 [Epothilone B],0.058,thousand-fold more active than Taxol,thousand-fold more potent,better solubility than taxol,
,C/C(=C\c1csc(C)n1)[C@@H]1C[C@@H]2O[C@@H]2CCC[C@H](C)[C@H](O)[C@@H](C)C(=O)C(C)(C)[C@@H](O)CC(=O)O1 [Epothilone A],,,,,thousand-fold more potent
micromolar,CC(=O)O[C@H]1C(=O)[C@@]2(C)[C@H]([C@H](OC(=O)c3ccccc3)[C@]3(O)C[C@H](OC(=O)[C@H](O)[C@@H](NC(=O)c4ccccc4)c4ccccc4)C(C)=C1C3(C)C)[C@]1(OC(C)=O)CO[C@@H]1C[C@@H]2O [Taxol],23,,,,
